In article PMC6804459 (Acta Pharmaceutica Sinica. B, 2019):

Target: recombinant human PrP (rhPrP, PrP^C) (Homo sapiens, UniProt P04156)
Test: biochemical
Format: binding

Cc1cc(Nc2ccc(NC(=O)c3ccc(Nc4ccnc5ccccc45)cc3)cc2)nc(N)n1 [SGI-1027]
Kd: 1610 nM
